Experimental data reported in US9738634B2, “Heterocyclic amide compound and herbicide” (SYNGENTA PARTICIPATIONS AG, priority 2013, dated 2017).

Legend:
Format in all cases: in vivo
black-grass = assay: Test Example 3: weedkilling efficacy through soil treatment; H: black-grass; conditions: soil treatment, treatment dosage 320 g/ha
Outline: (§1)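 Crop and weed responses were judged three weeks after a uniform surface spray of the water-diluted emulsion at the given g/ha rate. Seeds sat beneath about 1.5 cm of sterilized diluvial soil, and boxes stood in a greenhouse at 25 to 30° C.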

redroot pigweed = assay: Test Example 3: weedkilling efficacy through soil treatment; L: redroot pigweed; conditions: soil treatment, treatment dosage 320 g/ha
Outline: as §1

wheat = assay: Test Example 3: soil treatment, effect on crop; e: wheat; conditions: soil treatment, treatment dosage 320 g/ha
Outline: as §1

transplanted rice = assay: Test Example 1: preemergent weed treatment in the submerged state, effect on crop; a: transplanted rice; conditions: treatment dosage 320 g/ha
Outline: (§2)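 Pots of alluvial soil flooded 4 cm deep, sown with barnyard grass, bulrush and oval-leafed pondweed and transplanted with 2.5-leaf rice. Emulsified compound applied to the water surface on sowing day at stated g/ha; greenhouse 25–30 °C, effects assessed 3 weeks after treatment.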

chickweed = assay: Test Example 3: weedkilling efficacy through soil treatment; N: chickweed; conditions: soil treatment, treatment dosage 320 g/ha
Outline: as §1

Italian ryegrass = assay: Test Example 3: weedkilling efficacy through soil treatment; I: Italian ryegrass; conditions: soil treatment, treatment dosage 320 g/ha
Outline: as §1

oval-leafed pondweed [1] = assay: Test Example 2: weedkilling efficacy, growth period weed treatment in the submerged state; C: oval-leafed pondweed; conditions: treatment dosage 320 g/ha
Outline: (§3)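 Barnyard grass, bulrush and oval-leafed pondweed sown in alluvial soil under 4 cm flooding, greenhouse 25 to 30° C. At 1-2 leaf stage, water-diluted emulsion applied to the water surface at stated g/ha dosages; effects scored 3 weeks later.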

common wind-grass = assay: Test Example 3: weedkilling efficacy through soil treatment; J: common wind-grass; conditions: soil treatment, treatment dosage 320 g/ha
Excerpt: (§4) Weedkilling Efficacy Test Through Soil Treatment
(§5) Sterilized diluvial soil was introduced into 21 cm long, 13 cm wide, 7 cm deep plastic boxes, and seeds of crabgrass, green foxtail, barnyard grass, wild oat, black-grass, Italian ryegrass, common wind-grass, Indian mallow, redroot pigweed, fig-leafed goosefoot, chickweed, catchweed, birds-eye speedwell, corn, soybean, rice, wheat, beet and rapeseed were each spot-sown, and covered with about 1.5 cm of soil. Next, emulsions of compounds of the present invention prepared according to compounding example 2 were diluted with water to give the specified dosages, and applied uniformly onto the soil surface with a small sprayer. The plants were grown by placing the plastic boxes in a greenhouse at 25 to 30° C., and 3 weeks after the pesticide treatment the effect on each type of plant was investigated on the basis of the assessment criteria of test example 1.
(§6) A: barnyard grass, B: bulrush, C: oval-leafed pondweed, D: crabgrass, E: green foxtail, F: barnyard grass, G: wild oat, H: black-grass, I: Italian ryegrass, J: common wind-grass, K: Indian mallow, L: redroot pigweed, M: fig-leafed goosefoot, N: chickweed, O: catchweed, p: birds-eye speedwell, a: transplanted rice, b: directly sown rice, c: corn, d: soybean, e: wheat, f: beet, g: rapeseed
(§7) Further, pesticide dosage (g/ha) indicates the concentration regulated such that treatment was with only the stated number of grams (g), when calculated per hectare (ha).

birds-eye speedwell = assay: Test Example 3: weedkilling efficacy through soil treatment; p: birds-eye speedwell; conditions: soil treatment, treatment dosage 320 g/ha
Outline: as §1

green foxtail = assay: Test Example 3: weedkilling efficacy through soil treatment; E: green foxtail; conditions: soil treatment, treatment dosage 320 g/ha
Outline: as §1

bulrush [2] = assay: Test Example 1: weedkilling efficacy, preemergent weed treatment in the submerged state; B: bulrush; conditions: treatment dosage 320 g/ha
Outline: as §2

Indian mallow = assay: Test Example 3: weedkilling efficacy through soil treatment; K: Indian mallow; conditions: soil treatment, treatment dosage 320 g/ha
Outline: as §1

barnyard grass [3] = assay: Test Example 1: weedkilling efficacy, preemergent weed treatment in the submerged state; A: barnyard grass; conditions: treatment dosage 320 g/ha
Outline: as §2

corn = assay: Test Example 3: soil treatment, effect on crop; c: corn; conditions: soil treatment, treatment dosage 320 g/ha
Outline: as §1

beet = assay: Test Example 3: soil treatment, effect on crop; f: beet; conditions: soil treatment, treatment dosage 320 g/ha
Outline: as §1

soybean = assay: Test Example 3: soil treatment, effect on crop; d: soybean; conditions: soil treatment, treatment dosage 320 g/ha
Outline: as §1

wild oat = assay: Test Example 3: weedkilling efficacy through soil treatment; G: wild oat; conditions: soil treatment, treatment dosage 320 g/ha
Outline: as §1

barnyard grass [4] = assay: Test Example 2: weedkilling efficacy, growth period weed treatment in the submerged state; A: barnyard grass; conditions: treatment dosage 320 g/ha
Outline: as §3

rapeseed = assay: Test Example 3: soil treatment, effect on crop; g: rapeseed; conditions: soil treatment, treatment dosage 320 g/ha
Excerpt: as §4, §5, §6, §7

bulrush [5] = assay: Test Example 2: weedkilling efficacy, growth period weed treatment in the submerged state; B: bulrush; conditions: treatment dosage 320 g/ha
Outline: as §3

oval-leafed pondweed [6] = assay: Test Example 1: weedkilling efficacy, preemergent weed treatment in the submerged state; C: oval-leafed pondweed; conditions: treatment dosage 320 g/ha
Outline: as §2

directly sown rice = assay: Test Example 3: soil treatment, effect on crop; b: directly sown rice; conditions: soil treatment, treatment dosage 320 g/ha
Outline: as §1

crabgrass = assay: Test Example 3: weedkilling efficacy through soil treatment; D: crabgrass; conditions: soil treatment, treatment dosage 320 g/ha
Outline: as §1

barnyard grass [7] = assay: Test Example 3: weedkilling efficacy through soil treatment; F: barnyard grass; conditions: soil treatment, treatment dosage 320 g/ha
Excerpt: as §4, §5, §6, §7

fig-leafed goosefoot = assay: Test Example 3: weedkilling efficacy through soil treatment; M: fig-leafed goosefoot; conditions: soil treatment, treatment dosage 320 g/ha
Outline: as §1

Row | Compound | H: black-grass, weedkilling efficacy grade (black-grass) | L: redroot pigweed, weedkilling efficacy grade (redroot pigweed) | e: wheat, effect on crop grade (wheat) | a: transplanted rice, effect on crop grade (transplanted rice) | N: chickweed, weedkilling efficacy grade (chickweed) | I: Italian ryegrass, weedkilling efficacy grade (Italian ryegrass) | C (oval-leafed pondweed) weedkilling efficacy grade (oval-leafed pondweed [1]) | J: common wind-grass, weedkilling efficacy grade (common wind-grass) | P: birds-eye speedwell, weedkilling efficacy grade (birds-eye speedwell) | E: green foxtail, weedkilling efficacy grade (green foxtail) | B: bulrush, weed kill grade (bulrush [2]) | K: Indian mallow, weedkilling efficacy grade (Indian mallow) | c: corn, effect on crop grade (corn) | f: beet, effect on crop grade (beet) | d: soybean, effect on crop grade (soybean) | G: wild oat, weedkilling efficacy grade (wild oat) | g: rapeseed, effect on crop grade (rapeseed) | b: directly sown rice, effect on crop grade (directly sown rice) | D: crabgrass, weedkilling efficacy grade (crabgrass) | F: barnyard grass, weedkilling efficacy grade (barnyard grass [7]) | also measured
1 | CC(C)(C(=O)Nc1ccc2ccccc2n1)N1COCN(c2ccccc2)C1=O [A-1-24] | 1 (weed kill ratio 5% or more, less than 20%) | 0 (weed kill ratio 5% or less (practically no effect)) | 0 (weed kill ratio 5% or less (practically no effect)) | 0 (weed kill ratio 5% or less (practically no effect)) | 0 (weed kill ratio 5% or less (practically no effect)) | 3 (weed kill ratio 40% or more, less than 70%) | 5 (weed kill ratio 90% or more, (practically complete withering)) | 4 (weed kill ratio 70% or more, less than 90%) | 4 (weed kill ratio 70% or more, less than 90%) | 3 (weed kill ratio 40% or more, less than 70%) | 5 (weed kill ratio 90% or more, (practically complete withering)) | 0 (weed kill ratio 5% or less (practically no effect)) | 0 (weed kill ratio 5% or less (practically no effect)) | 0 (weed kill ratio 5% or less (practically no effect)) | 0 (weed kill ratio 5% or less (practically no effect)) | 0 (weed kill ratio 5% or less (practically no effect)) | 0 (weed kill ratio 5% or less (practically no effect)) | 0 (weed kill ratio 5% or less (practically no effect)) | 3 (weed kill ratio 40% or more, less than 70%) | 2 (weed kill ratio 20% or more, less than 40%) | A: barnyard grass, weed kill grade (barnyard grass [3]): 5 (weed kill ratio 90% or more, (practically complete withering)); A (barnyard grass) weedkilling efficacy grade (barnyard grass [4]): 4 (weed kill ratio 70% or more, less than 90%); B (bulrush) weedkilling efficacy grade (bulrush [5]): 5 (weed kill ratio 90% or more, (practically complete withering)); C: oval-leafed pondweed, weed kill grade (oval-leafed pondweed [6]): 5 (weed kill ratio 90% or more, (practically complete withering))
2 | CC(C)(C(=O)Nc1cc(I)ccn1)N1COCN(c2ccccc2)C1=O [A-2-10] | 5 (weed kill ratio 90% or more, (practically complete withering)) | 1 (weed kill ratio 5% or more, less than 20%) | 0 (weed kill ratio 5% or less (practically no effect)) | 1 (weed kill ratio 5% or more, less than 20%) | 3 (weed kill ratio 40% or more, less than 70%) | 5 (weed kill ratio 90% or more, (practically complete withering)) | 5 (weed kill ratio 90% or more, (practically complete withering)) | 5 (weed kill ratio 90% or more, (practically complete withering)) | 4 (weed kill ratio 70% or more, less than 90%) | 5 (weed kill ratio 90% or more, (practically complete withering)) | 5 (weed kill ratio 90% or more, (practically complete withering)) | 0 (weed kill ratio 5% or less (practically no effect)) | 0 (weed kill ratio 5% or less (practically no effect)) | 3 (weed kill ratio 40% or more, less than 70%) | 0 (weed kill ratio 5% or less (practically no effect)) | 2 (weed kill ratio 20% or more, less than 40%) | 3 (weed kill ratio 40% or more, less than 70%) | 4 (weed kill ratio 70% or more, less than 90%) | 5 (weed kill ratio 90% or more, (practically complete withering)) | 5 (weed kill ratio 90% or more, (practically complete withering)) | A: barnyard grass, weed kill grade (barnyard grass [3]): 5 (weed kill ratio 90% or more, (practically complete withering)); A (barnyard grass) weedkilling efficacy grade (barnyard grass [4]): 5 (weed kill ratio 90% or more, (practically complete withering)); B (bulrush) weedkilling efficacy grade (bulrush [5]): 5 (weed kill ratio 90% or more, (practically complete withering)); C: oval-leafed pondweed, weed kill grade (oval-leafed pondweed [6]): 5 (weed kill ratio 90% or more, (practically complete withering)); M: fig-leafed goosefoot, weedkilling efficacy grade (fig-leafed goosefoot): 4 (weed kill ratio 70% or more, less than 90%)
3 | CC(C)(C(=O)Nc1cc(Cl)cc(Cl)n1)N1COCN(c2ccccc2)C1=S [A-2-18, N-(4,6-dichloropyridin-2-yl)-2-methyl-2-(5-phenyl-4-thioxo-1,3,5-oxadiazinan-3-yl) propionamide] | 5 (weed kill ratio 90% or more, (practically complete withering)) | 3 (weed kill ratio 40% or more, less than 70%) | 0 (weed kill ratio 5% or less (practically no effect)) |  | 3 (weed kill ratio 40% or more, less than 70%) | 5 (weed kill ratio 90% or more, (practically complete withering)) |  | 5 (weed kill ratio 90% or more, (practically complete withering)) | 5 (weed kill ratio 90% or more, (practically complete withering)) | 5 (weed kill ratio 90% or more, (practically complete withering)) |  | 2 (weed kill ratio 20% or more, less than 40%) | 1 (weed kill ratio 5% or more, less than 20%) | 3 (weed kill ratio 40% or more, less than 70%) | 0 (weed kill ratio 5% or less (practically no effect)) | 3 (weed kill ratio 40% or more, less than 70%) | 3 (weed kill ratio 40% or more, less than 70%) | 5 (weed kill ratio 90% or more, (practically complete withering)) | 5 (weed kill ratio 90% or more, (practically complete withering)) | 5 (weed kill ratio 90% or more, (practically complete withering)) | M: fig-leafed goosefoot, weedkilling efficacy grade (fig-leafed goosefoot): 3 (weed kill ratio 40% or more, less than 70%)
